Here are results for eleven compounds from patent US20030187003A1, “Pharmaceutical compositions and method for the treatment of retroviral infections” (priority 2000, published 2003).

The target of one data set is IN (Human immunodeficiency virus type 1 group M subtype B, UniProt P04585). The conditions noted are these: background section; read-out: IC50 inhibition of IN; cited from earlier work.
For data set [1], the system named is HIV-1-derived vectors pseudotyped with the VSV-G envelope. Put plainly: microbe, parasite or virus in culture. Type of data set: cell-based. The settings on record: Human immunodeficiency virus 1, HEK-293T, read-out: EC50 inhibition of lentiviral transduction.
In a further data set the test system is HIV-1(IIIB). The data set is described as follows: inhibition of virus-induced cytopathicity in MT-4 cells, HIV-1 (IIIB). Type of data set: cell-based. The conditions noted are these: for EC50: Human immunodeficiency virus 1, IIIB, MT4, 120 h, MT-4 cells, viral cytopathic effect, 5 days post-infection; for activity against the replication of HIV-1(IIIB): in words.

The subject of a further data set is HIV-2 (EHO). The data set is described as follows: inhibition of virus-induced cytopathicity in MT-4 cells, HIV-2 (EHO). Type of data set: cell-based. The conditions noted are these: for EC50: Human immunodeficiency virus 2, MT4, 120 h, read-out: EC50 HIV-2 EHO. A general note: Protection from cytopathic effect is a common read-out in antiviral testing.
For data set [2], the target named is T1, recombinant His-tagged HIV-1 integrase (Human immunodeficiency virus type 1 group M subtype B, UniProt P04585). The data set is described as follows: HIV-1 integrase 3′-processing assay, oligonucleotide-based. The conditions noted are these: for inhibition of the 3-processing reaction: in words.
Method: (§1) Reactions were started by the addition of the enzyme. Inhibitors were incubated shortly with the reaction components before the addition of integrase. Reactions were allowed to proceed at 37° C. for 7 minutes and stopped by the addition of formamide loading buffer (95% formamide, 30 mM ethylenediamine tetraacetic acid, 0.1% xylene cyanol, 0.1% bromophenol blue, 0.1% sodium dilaurylsulfate SDS). In the overall integration assay, this reaction was allowed to proceed for 60 minutes before the addition of a formamide dye.
In the next data set the test system is SIV (MAC251). Put plainly: inhibition of virus-induced cytopathicity in MT-4 cells, SIV (MAC251). Type of data set: cell-based, Simian immunodeficiency virus. The settings on record: for EC50: Simian immunodeficiency virus, MT4, 120 h, read-out: EC50 SIV MAC251.
The test system of another data set is HIV-2 (ROD). Put plainly: inhibition of virus-induced cytopathicity in MT-4 cells, HIV-2 (ROD). Type of data set: cell-based. The settings on record: for EC50: Human immunodeficiency virus 2, MT4, 120 h, read-out: EC50 HIV-2 ROD.
Data set [3] in a line: cytotoxicity, viability of mock-infected cells. Type of data set: cell-based. The conditions noted are these: human, viability of mock-infected MT-4 cells. The method, then: Cytotoxicity of these compounds was determined in parallel by measuring the viability of mock-infected MT-4 or C8166 cells 5 days post-infection. The antiviral activity and cytotoxicity data, including average values and standard deviations for at least two separate experiments, are depicted in Table 2, wherein: CC50 represents the 50% cytotoxic concentration, i.e. the concentration that reduces by 50% the viability of MT-4 cells.

Another data set concerns HIV-1 L1. Put plainly: inhibition of virus-induced cytopathicity in MT-4 cells, HIV-1 clinical isolate L1. Type of data set: cell-based. The conditions noted are these: Human immunodeficiency virus 1, MT4, 120 h, read-out: EC50 HIV-1 L1.
Data set [4] addresses T1, recombinant His-tagged HIV-1 integrase. The data set is described as follows: HIV-1 integrase overall integration assay, oligonucleotide-based. The conditions noted are these: for inhibition of the overall integration reaction: in words.
Method: as §1
The target of data set [5] is T2, Recombinant HIV-1 RT (HXB2) (Human immunodeficiency virus type 1 group M subtype B, UniProt P04585).
T2 construct: Recombinant HIV-1 RT (HXB2) was obtained as described by Jonckheere et al; made in house
Put plainly: inhibition of HIV-1 reverse transcriptase enzymatic activity. Type of data set: biochemical. The source says: Poly(rC).oligo(dG) and poly (rA).oligo(dT) were used as template-primers, and 8-[^3H]-dGTP and [^3H]-dTTP were used as radiolabelled substrates.

In data set [6] the target is T1, recombinant His-tagged HIV-1 integrase. The data set is described as follows: HIV-1 integrase strand transfer assay, oligonucleotide-based.
In the next data set the test system is HIV-1 L6. Type of data set: cell-based. The settings on record: L6 versus wild type strain L1.
The subject of another data set is HIV-1 L2. Type of data set: cell-based.
Another data set concerns HIV-1 L4. Type of data set: cell-based.
Setting [7] is: MT-4 cells, viral cytopathic effect, 5 days post-infection.
Setting [8] is: IC50 Poly(A).oligo(dT), template-primer poly(A).oligo(dT).
The mark [9] stands for this setting: IC50 poly(C).oligo(dG), template-primer poly(C).oligo(dG).

Where two headings read alike, the source gives them in different places.

In general, IC50 refers to the midpoint of a concentration-inhibition curve. As usually defined, the EC50 is the concentration at which the effect is half-maximal. Usually CC50 stands for the concentration giving 50% cytotoxicity. A high value points to better tolerance by the cells.

Turning to `[N-]=[N+]=Nc1cn([C@H]2C[C@H](N=[N+]=[N-])[C@@H](COP(=O)(O)O)O2)c(=O)[nH]c1=O` [5-N3-AZUMP, 3′,5-diazido-2′,3′-dideoxyuridine 5′-monophosphate], at IN, the IC50 was 150 µM.
Regarding `Cc1cn([C@H]2C[C@H](N=[N+]=[N-])[C@@H](CO)O2)c(=O)[nH]c1=O` [AZT, reference compound], in [1], the EC50 is 0.049 µM.
In the case of `Oc1nc(O)c2c(n1)Oc1nc(O)nc(O)c1C2c1ccc(I)cc1` [A], the EC50 in the data set with HIV-1(IIIB), in the data set with HIV-2 (EHO) (setting [7]), in the data set on SIV (MAC251) (setting [7]), in the data set on HIV-2 (ROD) (setting [7]) and in the data set on HIV-1 L1 (setting [7]) was over 276 µM in each case. For the same compound, the IC50 in [2] and in data set [4] was over 207 µM each time. In [3], the CC50 at 5 days is over 276 µM.
For `Clc1nc(Cl)c2c(n1)Oc1nc(Cl)nc(Cl)c1C2c1ccccc1` [B], the EC50 with HIV-1(IIIB), with HIV-2 (EHO) (setting [7]), in the data set on SIV (MAC251) (setting [7]), in the data set with HIV-2 (ROD) (setting [7]) and in the data set on HIV-1 L1 (setting [7]) was over 17.5 µM throughout. The IC50 turned out to be 74 ± 38.5 µM in data set [2] and 25 ± 4.5 µM in data set [4]. The CC50 at 5 days in data set [3] came to 17.5 µM.
With `Oc1nc(O)c2c(n1)Oc1nc(O)nc(O)c1C2c1ccccc1` [C], the EC50 in the data set with HIV-1(IIIB) was 170 ± 45 µM; in the data set with HIV-2 (EHO), 169 ± 27 µM; in the data set with SIV (MAC251) it was 194 µM; with HIV-2 (ROD) it was over 383 µM; with HIV-1 L1, 116 ± 30 µM. The “activity against the replication of HIV-1(IIIB)” value (shortened to “activity … of HIV-1(IIIB)”) in the data set with HIV-1(IIIB) is recorded as “active”. Further, the IC50 was 22.4 ± 6.4 µM in [2]; 33.1 ± 15.1 µM in data set [5] (setting [8]); 15.1 ± 5.9 µM in data set [5] (setting [9]); 782 ± 242 µM in data set [6]; 34.6 ± 11.3 µM in data set [4]. Further, the “inhibition of the 3-processing reaction” value in data set [2] was “inhibited”. For the same compound, in data set [3], the CC50 at 5 days was over 383 µM. For the same compound, in data set [4], the “inhibition of the overall integration reaction” value was “inhibited”.
With `COc1nc(O)nc2c1C(c1ccc([N+](=O)[O-])cc1)c1c(OC)nc(O)nc1O2` [D], the EC50 in the data set on HIV-1(IIIB), in the data set on HIV-2 (EHO) (setting [7]), in the data set on SIV (MAC251) (setting [7]), in the data set on HIV-2 (ROD) (setting [7]) and with HIV-1 L1 (setting [7]) was over 313 µM throughout. The IC50 in [2] and in [4] was over 250 µM each time. The compound also yielded a CC50 at 5 days in data set [3] of over 313 µM.
`Oc1nc(O)c2c(n1)Oc1nc(O)nc(O)c1C2c1ccc(Br)cc1` [E]: the EC50 is 273 ± 38 µM in the data set on HIV-1(IIIB); over 309 µM in the data set with HIV-2 (EHO); over 309 µM in the data set on SIV (MAC251); over 309 µM in the data set on HIV-2 (ROD); over 309 µM with HIV-1 L1. Also, the “activity … of HIV-1(IIIB)” value with HIV-1(IIIB) is “active”. Besides, the IC50 in data set [2] was 208 ± 82.2 µM; in [5] (setting [8]), over 494 µM; in data set [5] (setting [9]) it was over 494 µM; in data set [6] it was over 1240 µM; in data set [4], 298 ± 7.7 µM. For the same compound, in data set [2], the “inhibition of the 3-processing reaction” value is on record as “inhibited”. Also, the CC50 at 5 days in data set [3] was over 309 µM. Moreover, the “inhibition of the overall integration reaction” value in data set [4] is recorded as “inhibited”.
On to `Oc1nc(O)c2c(n1)Oc1nc(O)nc(O)c1C2c1ccc(Cl)cc1` [F], for which the EC50 in the data set with HIV-1(IIIB), in the data set on HIV-2 (EHO) (setting [7]), in the data set with SIV (MAC251) (setting [7]), with HIV-2 (ROD) (setting [7]) and in the data set with HIV-1 L1 (setting [7]) was over 347 µM each time. For the same compound, the figures for the IC50 in [2] and in data set [4] were 144 ± 81.3 µM and 97.1 ± 93.8 µM, respectively. In [3], the CC50 at 5 days was over 347 µM.
Consider `Oc1nc(S)nc2c1C(c1ccc(Cl)cc1)c1c(O)nc(S)nc1O2` [G], for which the EC50 in the data set on HIV-1(IIIB) is 56.8 ± 30 µM; in the data set with HIV-2 (EHO), over 137 µM; in the data set with SIV (MAC251), 100 µM; in the data set on HIV-2 (ROD), over 137 µM; in the data set on HIV-1 L2 (Human immunodeficiency virus 1), 95.6 ± 6.5 µM; in the data set with HIV-1 L1, 101 ± 32 µM. This compound also yielded an EC50 in the data set with HIV-1 L4 (Human immunodeficiency virus 1) of 163 ± 3.7 µM. Moreover, the “activity … of HIV-1(IIIB)” value with HIV-1(IIIB) was “active”. Besides, the IC50 was found to be 0.9 ± 0.5 µM in [2]; 35.2 ± 0.4 µM in data set [5] (setting [8]); 25.8 ± 15.9 µM in data set [5] (setting [9]); 201 ± 120 µM in data set [6]; 1 ± 0.4 µM in data set [4]. The “inhibition of the 3-processing reaction” value in data set [2] is “inhibited”. Also, the “fold increase in EC50” value is given as 1.8 with HIV-1 L6, 0.9 in the data set with HIV-1 L2 (L2 versus wild type strain L1) and 1.6 with HIV-1 L4 (L4 versus wild type strain L1). Also, in data set [3], half-maximal cytotoxicity (CC50 at 5 days) was put at 137 µM. Besides, the “inhibition of the overall integration reaction” value in [4] is “inhibited”.
In the case of `Cc1ccnc2c1NC(=O)c1cccnc1N2C1CC1` [nevirapine, reference compound], the EC50 in the data set on HIV-1(IIIB) was 0.04 µM; with HIV-2 (EHO) (setting [7]), over 97.6 µM; with SIV (MAC251) (setting [7]) it was over 97.6 µM; in the data set with HIV-2 (ROD) (setting [7]) it was over 97.6 µM; in the data set on HIV-1 L1 (setting [7]), 0.06 ± 0.01 µM. For the same compound, the “activity against the replication of HIV-2 (EHO)” value with HIV-2 (EHO) (at 98 μM in MT-4 cells) is “inactive”. Also, the “activity against the replication of SIV (MAC251)” value in the data set on SIV (MAC251) (at 98 μM in MT-4 cells) was “inactive”. Further, the “activity against the replication of HIV-2 (ROD)” value with HIV-2 (ROD) (at 98 μM in MT-4 cells) is “inactive”. Moreover, the CC50 at 5 days in [3] is over 97.6 µM.
As for Dextran sulfate [reference compound], the IC50 came to 22 ± 8.8 µM in data set [5] (template-primer poly(A).oligo(dT), read-out: IC50 Poly(A).oligo(dT)) and 7.3 ± 3.2 µM in data set [5] (template-primer poly(C).oligo(dG), read-out: IC50 poly(C).oligo(dG)).
